Test results as given in US20250302834A1, “N-ALKYL-2-SUBSTITUTED ATP ANALOGUES FOR USE AS ANTIBACTERIAL AGENT” (UNIVERSITÉ DE LIÈGE, priority 2022, published 2025).

Assays:
[1] = system: Staphylococcus aureus IE clinical isolate; assay: Haemolytic activity of culture supernatant on human red blood cells, IE strain; type: cell-based; settings: IE strain grown with 0.5 μg/mL up to exponential phase; supernatant on red blood cells 30 minutes
Experimental: (§1) Staphylococcus aureus strains included previously characterized infective endocarditis (IE) clinical isolate (Liesenborghs L, Meyers S, Lox M, Criel M, Claes J, Peetermans M, Trenson S, Vande Velde G, Vanden Berghe P, Baatsen P, et al. Staphylococcus aureus endocarditis: distinct mechanisms of bacterial adhesion to damaged and inflamed heart valves. Eur Heart J 2019; 40:3248-3259) or JE2 (USA300 MRSA). Bacteria were grown in Tryptic soy broth (TSB, Sigma) under agitation (200 rpm) at 37° C. Prior to all experiments, a single colony from TSA plates was used to inoculate 4 mL of TSB in 15-mL polystyrene tubes and bacteria were grown overnight. Liquid cultures were then diluted 100-fold in 20 mL of fresh TSB and aliquoted in new tubes. For tetrasodium cangrelor treatment, different concentrations of the drug were added to the corresponding tubes. Tetrasodium cangrelor was dissolved in the culture medium, i.e. Tryptic soy broth which comprises proteins and nutrients for growing bacteria, more particularly: casein, soya peptone, sodium chloride, dipotassium phosphate, dextrose, water. […]
(§2) Freshly drawn citrate anticoagulated blood from healthy volunteers was centrifugated for 15 minutes at 1,000×g. […] Haemolytic activity was determined in supernatants by measuring the absorbance at 570 nm in a spectrophotometer. […]

[2] = intravenous bolus (30 μg/kg) followed by 4-μg/kg/min infusion; cited from earlier work
[3] = system: methicillin-resistant JE2 (USA300) Staphylococcus aureus strain; assay: Haemolytic activity of culture supernatant on human red blood cells, JE2 strain; type: cell-based; settings: JE2 (USA300) grown with 1 μg/mL up to stationary phase; supernatant on red blood cells 30 minutes
Experimental: as §1, §2

[4] = system: Staphylococcus aureus IE clinical isolate; assay: Staphyloxanthin production, IE strain; type: cell-based; settings: IE strain grown with 0.5 μg/mL up to exponential phase (FIG. 3)
Experimental: as §1
(§3) Bacteria pellets from overnight culture were resuspended in 400 μL methanol and incubated for 30 minutes at 37° C. under gentle agitation on a table shaker. […] Pigment intensity in supernatants was analyzed by measuring the absorbance at 470 nm. […]

JE2 S. aureus [5] = assay: Staphyloxanthin production, JE2 strain; type: cell-based, Staphylococcus aureus; settings: 1.0 μg/ml (FIG. 4)
Experimental: as §1, §3

JE2 S. aureus [6] = assay: Bacterial adhesion to Von Willebrand factor under flow; type: cell-based, Staphylococcus aureus; settings: JE2 grown with 1 μg/ml; shear rate 1000 s^-1 for 10 minutes (FIG. 5)
Experimental: Staphylococcus aureus JE2 (USA300 MRSA) in exponential growth phase, non-treated or treated with cangrelor at 1 μg/ml were stained with 30 μg/ml 5(6)-Carboxyfluorescein N-hydroxysuccinimide ester (Sigma-Aldrich) in phosphate-buffered saline (PBS) for 30 minutes at room temperature on a shaker. After incubation, bacteria were centrifuged for 5 minutes at 14,000×g and the supernatant was removed. Next, a washing step was performed by resuspending the bacteria in PBS and removing PBS after centrifugation (5 minutes at 14,000×g). The bacterial pellet was then resuspended in 100 μl of 6% bovine serum albumin (BSA). The stained bacteria were kept on ice until further use in the Von Willebrand factor (VWF) adhesion assay and fibrinogen (Fg) adhesion assay. […]
After perfusion, the coverslip was removed from the system and washed with PBS, followed by a fixation step with 4% paraformaldehyde (PFA, miliporefore, Merck) for 10 minutes. […] Confocal microscopy was performed at a 40× magnification and fluorescence intensity was measured with QuPath software (Bankhead, P. et al. QuPath: Open source software for digital pathology image analysis. Sci. Rep. 7, 1-7 (2017)). A quantification of bacteria adhesion to VWF was determined by determining the percentage of positive pixels, corresponding to the fluorescent signal and bacterial adhesion.

JE2 S. aureus [7] = assay: Bacterial adhesion to fibrinogen; type: cell-based, Staphylococcus aureus; settings: JE2 grown with 1 μg/ml (FIG. 6)
Experimental: Staphylococcus aureus JE2 (USA300 MRSA) in exponential growth phase, non-treated or treated with cangrelor at 1 μg/ml were stained with 30 μg/ml 5(6)-Carboxyfluorescein N-hydroxysuccinimide ester (Sigma-Aldrich) in phosphate-buffered saline (PBS) for 30 minutes at room temperature on a shaker. After incubation, bacteria were centrifuged for 5 minutes at 14,000×g and the supernatant was removed. Next, a washing step was performed by resuspending the bacteria in PBS and removing PBS after centrifugation (5 minutes at 14,000×g). The bacterial pellet was then resuspended in 100 μl of 6% bovine serum albumin (BSA). The stained bacteria were kept on ice until further use in the Von Willebrand factor (VWF) adhesion assay and fibrinogen (Fg) adhesion assay.
96-well plates (cellstar, greiner) were coated with human plasma fibrinogen (Fg, Merck) for 24 hours at room temperature, followed by a washing step with PBS. Next, a blocking step with 2% BSA for 1 hour was done followed by a wash step with PBS. Labelled bacteria in exponential phase were then diluted in TSB medium to obtain 10^9 CFU/ml of labelled bacteria. […] Bacterial adhesion was then quantified using a spectrophotometer (multi-mode microplate reader FilterMax F5, molecular devices) Ex.:485 nm and em.:535 nm, a surface scan of the wells was performed. […]

JE2 S. aureus [8] = assay: Bacterial growth curve; type: cell-based, Staphylococcus aureus; settings: 1 μg/ml, 20 μg/ml and 40 μg/ml, 7 hours, OD 595 nm (FIG. 7)
Experimental: (§4) A bacterial growth curve and metabolic activity profile was obtained of exponential phase JE2 bacteria following treatment with different concentrations of cangrelor 1 μg/ml, 20 μg/ml and 40 μg/ml. The bacterial growth curve was obtained via a kinetic reading using a spectrophotometer, reading every 10 minutes for 7 hours at an optical density of 595 nm with continuous shaking. The metabolic activity profile was obtained using a Calscreener™ (Symcel), which measures the metabolic response over time (15 hours) in presence of the different concentrations of cangrelor. […] While cangrelor cannot inhibit the bacterial growth of JE2, it can inhibit virulence factors production by this strain upon treatment using a clinically relevant dose of 1 μg/ml.

JE2 S. aureus [9] = assay: Bacterial metabolic activity (Calscreener); type: cell-based, Staphylococcus aureus; settings: 1 μg/ml, 20 μg/ml and 40 μg/ml, 15 hours (FIG. 8)
Experimental: as §4

[10] = general statement, no test described; cited from earlier work

In the case of CSCCNc1nc(SCCC(F)(F)F)nc2c1ncn2[C@@H]1O[C@H](COP(=O)(O)OP(=O)(O)C(Cl)(Cl)P(=O)(O)O)C(O)C1O (stereo partly shown) [tetrasodium cangrelor], the “loss of supernatant haemolytic activity as compared to vehicle control (set to 100%)” value [1] is listed as 90% and the “steady state concentration of the drug reached in patient” value [2] is listed as 0.5 µg/mL.
With CSCCNc1nc(SCCC(F)(F)F)nc2c1ncn2[C@@H]1O[C@H](COP(=O)(O)OP(=O)(O)C(Cl)(Cl)P(=O)(O)O)[C@@H](O)[C@H]1O [cangrelor] the “loss of supernatant haemolytic activity as compared to vehicle control (set to 100%)” value [3] was “complete loss”, the “loss of bacteria staphyloxanthin production as compared to vehicle control (set to 100%)” value [4] was 90% and the “loss of bacteria staphyloxanthin production as compared to vehicle control (set to 100%)” value (JE2 S. aureus [5]) was 90%. For the same molecule, the “bacterial adhesion to Von Willebrand factor under flow as compared to vehicle control” value (JE2 S. aureus [6]) was “reduction”, the “bacterial adhesion to fibrinogen as compared to vehicle control” value (JE2 S. aureus [7]) was “reduction” and the “bacterial growth (AUC of growth curve) as compared to vehicle control” value (JE2 S. aureus [8]) was “could not affect”. The “bacterial metabolic activity as compared to vehicle control” value (JE2 S. aureus [9]) was “could not affect”.
For CCCSc1nc(N[C@@H]2C[C@H]2c2ccc(F)c(F)c2)c2nnn([C@@H]3C[C@H](OCCO)[C@@H](O)[C@H]3O)c2n1 [Ticagrelor], the “solubility in an aqueous environment or medium” value [10] is listed as “generally not soluble”.
